Measured values as given in BindingDB's records for patent US12128018 (Kdac Therapeutics, 2024).

Columns and labels:
Assay in all cases: Inhibition of Histone Deacetylase Enzymatic Activity
Histone deacetylase 5 = Histone deacetylase 5 (Homo sapiens, UniProt Q9UQL6)
Procedure: (§1) Its final concentration in the assay for HDACs 1,2,3,6 is 2 μM.Substrate B was prepared as 2 mM in 100% DMSO. Its final concentration in the assay for HDACs 4,5,7,8,9 is 2 μM.LBH was used as quench inhibitor to stop the reaction at the end point.

Histone deacetylase 9 = Histone deacetylase 9 (Homo sapiens, UniProt Q9UKV0)
Histone deacetylase 9, sequence (Q9UKV0 whole entry): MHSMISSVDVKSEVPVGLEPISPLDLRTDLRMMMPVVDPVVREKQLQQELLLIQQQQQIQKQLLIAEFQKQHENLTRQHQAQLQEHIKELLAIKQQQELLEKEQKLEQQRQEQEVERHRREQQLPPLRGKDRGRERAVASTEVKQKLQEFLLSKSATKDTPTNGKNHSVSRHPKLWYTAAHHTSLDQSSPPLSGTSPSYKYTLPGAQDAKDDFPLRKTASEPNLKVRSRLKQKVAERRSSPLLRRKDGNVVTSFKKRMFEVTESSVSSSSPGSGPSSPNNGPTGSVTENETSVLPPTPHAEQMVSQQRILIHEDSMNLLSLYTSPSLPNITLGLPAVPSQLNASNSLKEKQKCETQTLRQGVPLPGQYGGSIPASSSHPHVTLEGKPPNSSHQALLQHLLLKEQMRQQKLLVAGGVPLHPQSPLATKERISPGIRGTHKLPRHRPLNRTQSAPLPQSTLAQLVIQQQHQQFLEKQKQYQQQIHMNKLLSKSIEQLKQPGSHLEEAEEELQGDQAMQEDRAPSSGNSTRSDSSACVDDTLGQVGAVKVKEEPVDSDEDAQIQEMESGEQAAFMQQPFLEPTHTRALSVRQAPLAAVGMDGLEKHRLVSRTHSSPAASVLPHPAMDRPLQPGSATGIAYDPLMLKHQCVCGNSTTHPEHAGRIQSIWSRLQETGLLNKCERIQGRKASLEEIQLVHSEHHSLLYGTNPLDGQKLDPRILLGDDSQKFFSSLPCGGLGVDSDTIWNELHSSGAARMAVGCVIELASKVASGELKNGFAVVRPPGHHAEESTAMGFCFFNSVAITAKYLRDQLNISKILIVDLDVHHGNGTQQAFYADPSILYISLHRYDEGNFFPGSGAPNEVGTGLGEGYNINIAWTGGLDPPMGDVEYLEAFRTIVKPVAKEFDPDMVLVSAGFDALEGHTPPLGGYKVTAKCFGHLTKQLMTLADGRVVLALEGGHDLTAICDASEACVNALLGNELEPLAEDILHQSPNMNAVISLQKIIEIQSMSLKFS
Procedure: as §1

Histone deacetylase 6 = target: T1, Histone deacetylase 6 (Homo sapiens, UniProt Q9UBN7)
T1 sequence (Q9UBN7 whole entry): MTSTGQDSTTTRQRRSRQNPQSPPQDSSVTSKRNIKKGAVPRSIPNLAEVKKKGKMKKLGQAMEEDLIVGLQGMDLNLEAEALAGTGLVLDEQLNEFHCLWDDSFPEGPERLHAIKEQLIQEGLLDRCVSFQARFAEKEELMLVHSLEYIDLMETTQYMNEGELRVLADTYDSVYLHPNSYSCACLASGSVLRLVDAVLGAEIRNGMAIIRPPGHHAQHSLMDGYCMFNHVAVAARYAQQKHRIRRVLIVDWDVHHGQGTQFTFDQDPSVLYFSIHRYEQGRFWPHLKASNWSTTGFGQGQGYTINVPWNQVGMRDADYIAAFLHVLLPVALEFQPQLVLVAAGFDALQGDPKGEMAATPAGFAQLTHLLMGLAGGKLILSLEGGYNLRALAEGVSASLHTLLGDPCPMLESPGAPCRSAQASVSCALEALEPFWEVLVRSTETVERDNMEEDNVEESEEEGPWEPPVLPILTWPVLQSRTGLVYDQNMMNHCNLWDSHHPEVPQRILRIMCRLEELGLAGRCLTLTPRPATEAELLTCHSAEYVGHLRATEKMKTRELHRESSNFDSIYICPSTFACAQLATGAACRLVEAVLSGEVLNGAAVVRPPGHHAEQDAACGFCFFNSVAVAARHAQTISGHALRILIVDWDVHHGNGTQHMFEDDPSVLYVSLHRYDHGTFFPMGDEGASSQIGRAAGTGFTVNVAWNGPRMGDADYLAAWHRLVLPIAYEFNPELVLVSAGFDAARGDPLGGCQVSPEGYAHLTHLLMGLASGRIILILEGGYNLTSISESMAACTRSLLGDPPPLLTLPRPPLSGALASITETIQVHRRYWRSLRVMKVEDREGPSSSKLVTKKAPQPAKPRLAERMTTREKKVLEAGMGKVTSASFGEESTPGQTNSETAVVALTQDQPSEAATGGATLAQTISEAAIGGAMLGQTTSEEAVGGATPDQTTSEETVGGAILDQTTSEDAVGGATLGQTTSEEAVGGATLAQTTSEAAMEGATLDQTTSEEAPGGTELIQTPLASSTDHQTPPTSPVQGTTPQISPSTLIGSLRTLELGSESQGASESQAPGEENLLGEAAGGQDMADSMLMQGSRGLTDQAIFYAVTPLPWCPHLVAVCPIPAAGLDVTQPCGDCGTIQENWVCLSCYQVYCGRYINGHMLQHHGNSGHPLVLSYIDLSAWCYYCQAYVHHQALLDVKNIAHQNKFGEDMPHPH
Procedure: as §1

Histone deacetylase 8 = target: T2, Histone deacetylase 8 (Homo sapiens, UniProt Q9BY41)
T2 sequence (Q9BY41 whole entry): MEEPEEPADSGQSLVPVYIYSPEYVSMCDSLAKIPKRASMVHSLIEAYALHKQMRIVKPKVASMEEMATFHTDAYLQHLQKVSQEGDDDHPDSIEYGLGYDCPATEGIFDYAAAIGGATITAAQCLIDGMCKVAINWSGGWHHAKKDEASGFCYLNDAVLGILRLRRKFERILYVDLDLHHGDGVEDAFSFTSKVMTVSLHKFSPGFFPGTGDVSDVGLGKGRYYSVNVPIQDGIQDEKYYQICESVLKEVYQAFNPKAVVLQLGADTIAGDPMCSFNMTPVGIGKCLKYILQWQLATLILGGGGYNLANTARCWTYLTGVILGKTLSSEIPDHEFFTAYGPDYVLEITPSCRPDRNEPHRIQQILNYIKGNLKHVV
Procedure: as §1

Histone deacetylase 4 = Histone deacetylase 4 (Homo sapiens, UniProt P56524)
Histone deacetylase 4, sequence (P56524 whole entry): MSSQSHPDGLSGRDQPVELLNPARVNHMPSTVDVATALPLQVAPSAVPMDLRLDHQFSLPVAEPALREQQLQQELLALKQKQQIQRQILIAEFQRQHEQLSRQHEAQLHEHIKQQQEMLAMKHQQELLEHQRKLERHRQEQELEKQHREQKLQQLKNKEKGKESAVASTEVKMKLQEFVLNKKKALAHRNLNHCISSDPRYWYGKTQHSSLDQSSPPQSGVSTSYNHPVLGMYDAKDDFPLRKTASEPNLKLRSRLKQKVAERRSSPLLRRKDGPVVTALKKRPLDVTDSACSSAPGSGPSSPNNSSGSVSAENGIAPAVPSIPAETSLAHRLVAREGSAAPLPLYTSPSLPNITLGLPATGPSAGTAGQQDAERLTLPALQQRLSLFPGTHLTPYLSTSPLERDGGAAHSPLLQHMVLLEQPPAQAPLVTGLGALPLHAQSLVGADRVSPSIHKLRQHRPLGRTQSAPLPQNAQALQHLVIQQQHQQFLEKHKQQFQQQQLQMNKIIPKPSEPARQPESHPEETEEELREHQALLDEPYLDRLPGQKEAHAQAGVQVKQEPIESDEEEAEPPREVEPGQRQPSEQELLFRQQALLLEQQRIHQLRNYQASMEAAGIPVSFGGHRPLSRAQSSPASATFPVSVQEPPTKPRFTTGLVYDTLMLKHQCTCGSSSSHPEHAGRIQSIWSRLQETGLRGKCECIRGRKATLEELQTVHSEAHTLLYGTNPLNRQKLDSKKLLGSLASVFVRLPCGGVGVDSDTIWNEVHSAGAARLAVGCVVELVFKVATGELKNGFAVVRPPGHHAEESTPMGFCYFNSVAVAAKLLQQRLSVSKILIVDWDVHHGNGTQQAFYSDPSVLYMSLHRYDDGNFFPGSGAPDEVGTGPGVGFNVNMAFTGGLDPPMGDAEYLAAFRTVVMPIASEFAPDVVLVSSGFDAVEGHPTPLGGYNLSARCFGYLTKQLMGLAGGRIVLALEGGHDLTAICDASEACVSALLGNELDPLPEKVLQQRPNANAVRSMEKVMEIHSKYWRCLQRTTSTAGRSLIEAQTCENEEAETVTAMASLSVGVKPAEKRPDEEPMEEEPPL
Procedure: as §1

Histone deacetylase 7 = target: T3, Histone deacetylase 7 (Homo sapiens, UniProt Q8WUI4)
T3 sequence (Q8WUI4 whole entry): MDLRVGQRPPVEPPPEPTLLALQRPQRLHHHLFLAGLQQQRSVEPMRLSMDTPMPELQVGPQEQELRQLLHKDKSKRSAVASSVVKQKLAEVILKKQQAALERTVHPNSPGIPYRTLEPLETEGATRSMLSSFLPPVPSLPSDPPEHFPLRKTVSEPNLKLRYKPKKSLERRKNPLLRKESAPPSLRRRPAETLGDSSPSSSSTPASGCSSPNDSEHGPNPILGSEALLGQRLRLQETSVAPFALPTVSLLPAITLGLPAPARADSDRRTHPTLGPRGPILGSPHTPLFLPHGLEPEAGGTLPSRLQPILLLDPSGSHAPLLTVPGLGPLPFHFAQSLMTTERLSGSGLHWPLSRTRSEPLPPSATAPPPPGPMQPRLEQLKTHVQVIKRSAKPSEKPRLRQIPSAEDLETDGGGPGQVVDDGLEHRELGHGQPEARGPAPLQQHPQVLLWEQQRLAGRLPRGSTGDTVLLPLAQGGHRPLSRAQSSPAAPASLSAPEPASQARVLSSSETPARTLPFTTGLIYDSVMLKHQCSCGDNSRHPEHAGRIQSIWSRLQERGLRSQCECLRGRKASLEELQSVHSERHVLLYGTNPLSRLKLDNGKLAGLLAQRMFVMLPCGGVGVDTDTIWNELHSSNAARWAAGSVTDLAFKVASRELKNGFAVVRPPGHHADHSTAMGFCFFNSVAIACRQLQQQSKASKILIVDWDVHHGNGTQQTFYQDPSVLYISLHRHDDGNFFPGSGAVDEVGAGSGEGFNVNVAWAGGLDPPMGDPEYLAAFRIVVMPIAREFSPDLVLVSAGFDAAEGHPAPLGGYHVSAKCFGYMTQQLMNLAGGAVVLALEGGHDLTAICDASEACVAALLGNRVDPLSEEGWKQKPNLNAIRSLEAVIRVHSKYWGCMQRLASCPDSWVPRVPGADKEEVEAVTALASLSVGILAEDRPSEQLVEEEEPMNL
Procedure: as §1

Measured: IC50

Histone deacetylase 5, sequence (Q9UQL6 whole entry): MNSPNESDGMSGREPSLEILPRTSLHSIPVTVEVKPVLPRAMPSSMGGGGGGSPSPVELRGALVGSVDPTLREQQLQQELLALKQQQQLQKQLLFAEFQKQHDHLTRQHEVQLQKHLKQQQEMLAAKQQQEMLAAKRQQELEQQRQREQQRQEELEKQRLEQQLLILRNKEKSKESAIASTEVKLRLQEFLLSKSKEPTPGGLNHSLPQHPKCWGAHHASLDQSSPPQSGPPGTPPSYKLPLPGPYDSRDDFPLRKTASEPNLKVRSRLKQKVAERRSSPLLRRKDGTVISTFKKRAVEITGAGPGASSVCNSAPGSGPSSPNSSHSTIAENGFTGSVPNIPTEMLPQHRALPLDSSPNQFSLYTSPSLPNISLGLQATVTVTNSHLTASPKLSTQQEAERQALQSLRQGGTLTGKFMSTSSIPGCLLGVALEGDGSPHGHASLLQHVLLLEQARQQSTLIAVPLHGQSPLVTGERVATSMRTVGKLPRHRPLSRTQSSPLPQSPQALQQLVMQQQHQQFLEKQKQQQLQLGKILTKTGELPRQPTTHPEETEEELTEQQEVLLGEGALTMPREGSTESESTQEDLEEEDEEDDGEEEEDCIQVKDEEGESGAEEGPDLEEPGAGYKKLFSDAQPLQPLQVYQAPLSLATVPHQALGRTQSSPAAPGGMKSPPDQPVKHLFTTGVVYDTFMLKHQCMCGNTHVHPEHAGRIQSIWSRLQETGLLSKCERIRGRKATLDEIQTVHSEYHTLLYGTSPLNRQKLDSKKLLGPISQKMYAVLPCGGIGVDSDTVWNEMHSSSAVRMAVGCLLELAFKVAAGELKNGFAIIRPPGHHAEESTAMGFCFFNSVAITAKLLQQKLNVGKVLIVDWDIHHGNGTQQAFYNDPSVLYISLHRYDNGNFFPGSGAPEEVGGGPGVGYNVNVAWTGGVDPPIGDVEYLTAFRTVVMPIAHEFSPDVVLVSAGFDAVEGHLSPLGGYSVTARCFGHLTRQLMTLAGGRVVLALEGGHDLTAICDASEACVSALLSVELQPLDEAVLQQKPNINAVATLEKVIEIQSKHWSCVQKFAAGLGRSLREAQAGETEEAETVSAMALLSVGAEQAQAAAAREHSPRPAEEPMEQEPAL

CC(=O)Nc1ccc(C(=O)Nc2ccc(F)cc2N)cc1 [US12128018, Compound I-1]
> 30 µM: all assays above
